Data taken from patent US11040035B2, “3-oxo-2,6-diphenyl-2,3-dihydropyridazine-4-carboxamides” (BAYER PHARMA AKTIENGESELLSCHAFT, priority 2016, dated 2021).

How the values were obtained:
AHR [1] = target: T1, AHR (Homo sapiens, UniProt P35869); assay: In vitro assay 1: antagonism in human cell line (transactivation assay, kynurenic acid prestimulated); conditions: Assay 1: AHR-luc Hum Antagonism IC50 [M], 150 μM kynurenic acid, 20 hours, firefly luciferase
T1 sequence (P35869 11-848): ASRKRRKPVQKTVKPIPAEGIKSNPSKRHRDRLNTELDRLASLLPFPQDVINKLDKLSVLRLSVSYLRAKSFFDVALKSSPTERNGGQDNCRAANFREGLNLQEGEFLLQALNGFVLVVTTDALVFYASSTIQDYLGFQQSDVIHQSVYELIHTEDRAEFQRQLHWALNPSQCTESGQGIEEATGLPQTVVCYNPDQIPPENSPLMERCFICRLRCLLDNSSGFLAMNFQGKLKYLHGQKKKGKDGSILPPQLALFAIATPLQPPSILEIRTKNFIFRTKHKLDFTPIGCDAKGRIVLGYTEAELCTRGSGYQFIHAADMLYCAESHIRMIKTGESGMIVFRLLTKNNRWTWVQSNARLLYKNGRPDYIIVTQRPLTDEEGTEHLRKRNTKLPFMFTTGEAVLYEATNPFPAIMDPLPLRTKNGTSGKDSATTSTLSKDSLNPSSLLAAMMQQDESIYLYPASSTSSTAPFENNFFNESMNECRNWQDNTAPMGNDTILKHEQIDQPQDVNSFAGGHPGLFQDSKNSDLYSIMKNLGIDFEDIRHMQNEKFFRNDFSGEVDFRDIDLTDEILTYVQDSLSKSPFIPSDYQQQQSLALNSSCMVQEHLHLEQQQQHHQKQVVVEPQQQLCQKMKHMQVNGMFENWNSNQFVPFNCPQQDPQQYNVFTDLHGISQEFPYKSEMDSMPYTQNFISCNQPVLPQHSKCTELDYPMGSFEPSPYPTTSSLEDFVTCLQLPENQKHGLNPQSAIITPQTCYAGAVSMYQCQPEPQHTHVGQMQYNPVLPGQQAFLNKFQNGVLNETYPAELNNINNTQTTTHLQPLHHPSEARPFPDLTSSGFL

[2] = test system: AHR-regulated gene CYP1A1; assay: In vitro assay 3: AHR-regulated CYP1A1 expression in human cell line (U937, qPCR); conditions: Homo sapiens, U-937, 6 h, read-out: Assay 3: Hum CYP1A1 Antagonism IC50 [M], U937 cells, 200 μM KA, 6 hours, qPCR
AHR [3] = target: T1, AHR; assay: In vitro assay 2: agonism in human cell line (transactivation assay); conditions: Assay 2: AHR-luc Hum Agonism IC50 [M], no kynurenic acid, 20 hours, firefly luciferase

SMILES	IC50 (AHR [1]) [M]	IC50 [2] [M]	IC50 (AHR [3]) [M]
O=C(N[C@H](CO)Cc1ccccc1)c1cc(-c2ccc(C(F)(F)F)cc2)nn(-c2cccc(F)c2)c1=O [Example 251, 2-(3-Fluorophenyl)-N-[(2S)-1-hydroxy-3-phenylpropan-2-yl]-3-oxo-6-[4-(trifluoromethyl)phenyl]-2,3-dihydropyridazine-4-carboxamide]	5.09e-06	3.67e-08	> 2e-05
CC(C)(O)CNC(=O)c1cc(-c2ccc(C(F)(F)F)cc2)nn(-c2cccc(F)c2)c1=O [Example 256, 2-(3-Fluorophenyl)-N-(2-hydroxy-2-methylpropyl)-3-oxo-6-[4-(trifluoromethyl)phenyl]-2,3-dihydropyridazine-4-carboxamide]	1.44e-08	2.83e-08	> 2e-05
COC[C@H](CO)NC(=O)c1cc(-c2ccc(C(F)(F)F)cc2)nn(-c2cccc(F)c2)c1=O [Example 257, (+)-2-(3-Fluorophenyl)-N-[(2S)-1-hydroxy-3-methoxypropan-2-yl]-3-oxo-6-[4-(trifluoromethyl)phenyl]-2,3-dihydropyridazine-4-carboxamide]	6.37e-08	1.34e-07	> 2e-05
COC[C@@H](CO)NC(=O)c1cc(-c2ccc(C(F)(F)F)cc2)nn(-c2cccc(F)c2)c1=O [Example 258, (−)-2-(3-Fluorophenyl)-N-[(2R)-1-hydroxy-3-methoxypropan-2-yl]-3-oxo-6-[4-(trifluoromethyl)phenyl]-2,3-dihydropyridazine-4-carboxamide]	3.01e-08	3.71e-08	> 2e-05
O=C(NC[C@H](O)CO)c1cc(-c2ccc(C(F)(F)F)cc2)nn(-c2cccc(F)c2)c1=O [Example 264, (−)-N-[(2S)-2,3-Dihydroxypropyl]-2-(3-fluorophenyl)-3-oxo-6-[4-(trifluoromethyl)phenyl]-2,3-dihydropyridazine-4-carboxamide]	7.05e-08	8.01e-08	> 2e-05
O=C(NC[C@@H](O)CO)c1cc(-c2ccc(C(F)(F)F)cc2)nn(-c2cccc(F)c2)c1=O [Example 265, (+)-N-[(2R)-2,3-Dihydroxypropyl]-2-(3-fluorophenyl)-3-oxo-6-[4-(trifluoromethyl)phenyl]-2,3-dihydropyridazine-4-carboxamide]	6.04e-08	2.15e-07	> 2e-05
CC(C)(C)[C@@H](CO)NC(=O)c1cc(-c2ccc(Cl)cc2)nn(-c2cccc(F)c2)c1=O [Example 272, 6-(4-Chlorophenyl)-2-(3-fluorophenyl)-N-[(2S)-1-hydroxy-3,3-dimethylbutan-2-yl]-3-oxo-2,3-dihydropyridazine-4-carboxamide]	3.6e-08	2.37e-08	> 2e-05
CC(C)(O)C(NC(=O)c1cc(-c2ccc(Cl)cc2)nn(-c2cccc(F)c2)c1=O)C(F)(F)F (stereo not drawn) [Example 277, 6-(4-Chlorophenyl)-2-(3-fluorophenyl)-3-oxo-N-(1,1,1-trifluoro-3-hydroxy-3-methylbutan-2-yl)-2,3-dihydropyridazine-4-carboxamide]	4.94e-09	2.08e-08	> 2e-05
CC(NC(=O)c1cc(-c2ccc(Cl)cc2)nn(-c2cccc(F)c2)c1=O)C(C)(C)O (stereo not drawn) [Example 281, 6-(4-Chlorophenyl)-2-(3-fluorophenyl)-N-(3-hydroxy-3-methylbutan-2-yl)-3-oxo-2,3-dihydropyridazine-4-carboxamide]	2.2e-08	7.59e-08	> 2e-05
O=C(N[C@H](CO)C(F)(F)F)c1cc(-c2ccc(C(F)F)cc2)nn(-c2cccc(F)c2)c1=O [Example 296, 6-[4-(Difluoromethyl)phenyl]-2-(3-fluorophenyl)-3-oxo-N-[(2R)-1,1,1-trifluoro-3-hydroxypropan-2-yl]-2,3-dihydropyridazine-4-carboxamide]	3.66e-09	6.22e-09	> 2e-05
